{
  "source": "ChEMBL document CHEMBL2073947",
  "about": "“The human multidrug resistance protein MRP4 functions as a prostaglandin efflux transporter and is inhibited by nonsteroidal antiinflammatory drugs” (Proc Natl Acad Sci U S A, 2003)",
  "set-up_in_all_cases": "scale not given: the % may be the effect or the level left",
  "key": {"[1]": {"target": "T1, MRP5 (ATP-binding cassette sub-family C member 5) (Homo sapiens, UniProt O15440)", "T1 sequence (O15440 whole entry)": "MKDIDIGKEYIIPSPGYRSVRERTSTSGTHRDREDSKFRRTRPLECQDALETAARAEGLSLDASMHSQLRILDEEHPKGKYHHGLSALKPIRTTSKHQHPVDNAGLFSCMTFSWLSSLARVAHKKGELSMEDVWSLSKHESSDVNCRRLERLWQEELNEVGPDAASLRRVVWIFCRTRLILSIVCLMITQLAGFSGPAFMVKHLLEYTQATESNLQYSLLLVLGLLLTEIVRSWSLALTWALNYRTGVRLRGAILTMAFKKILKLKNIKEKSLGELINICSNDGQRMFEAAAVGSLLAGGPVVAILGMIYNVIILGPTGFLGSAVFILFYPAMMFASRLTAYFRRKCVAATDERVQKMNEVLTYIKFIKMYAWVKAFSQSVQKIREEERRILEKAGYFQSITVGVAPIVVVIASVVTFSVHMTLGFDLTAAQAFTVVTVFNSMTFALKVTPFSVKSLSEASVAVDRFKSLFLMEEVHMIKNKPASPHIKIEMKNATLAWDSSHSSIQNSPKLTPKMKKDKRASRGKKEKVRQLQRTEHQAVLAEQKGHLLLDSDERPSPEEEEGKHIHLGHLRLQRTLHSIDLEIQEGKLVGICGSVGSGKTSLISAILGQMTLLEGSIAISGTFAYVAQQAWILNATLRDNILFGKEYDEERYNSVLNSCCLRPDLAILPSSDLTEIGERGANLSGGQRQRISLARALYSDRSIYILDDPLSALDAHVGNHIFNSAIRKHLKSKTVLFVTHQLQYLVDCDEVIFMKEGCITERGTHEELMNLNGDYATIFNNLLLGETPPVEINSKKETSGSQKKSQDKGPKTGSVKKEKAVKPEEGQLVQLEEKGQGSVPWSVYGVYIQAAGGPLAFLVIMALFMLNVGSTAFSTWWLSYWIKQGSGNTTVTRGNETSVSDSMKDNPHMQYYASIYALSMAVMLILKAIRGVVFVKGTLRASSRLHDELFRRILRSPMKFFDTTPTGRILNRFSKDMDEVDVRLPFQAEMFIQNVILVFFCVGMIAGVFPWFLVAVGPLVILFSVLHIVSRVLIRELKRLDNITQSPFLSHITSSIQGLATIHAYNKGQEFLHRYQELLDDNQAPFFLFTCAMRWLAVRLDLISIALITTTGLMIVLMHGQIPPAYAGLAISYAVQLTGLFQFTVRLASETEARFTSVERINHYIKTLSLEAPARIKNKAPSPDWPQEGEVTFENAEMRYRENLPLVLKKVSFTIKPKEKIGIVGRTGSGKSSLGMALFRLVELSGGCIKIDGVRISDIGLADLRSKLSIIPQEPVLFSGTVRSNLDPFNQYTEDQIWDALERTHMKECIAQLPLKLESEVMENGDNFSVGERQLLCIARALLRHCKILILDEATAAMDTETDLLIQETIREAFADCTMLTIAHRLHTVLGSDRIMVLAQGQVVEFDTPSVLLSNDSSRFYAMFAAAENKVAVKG", "experiment": "TP_TRANSPORTER: inhibition of alaninyl-d4TMP by Prostaglandin E1 at a concentration of 20uM in membrane vesicle from MRP5-expressing HEK293 cell", "type": "functional, cell membranes", "settings": "membrane vesicles from MRP5-expressing HEK293 cells, probe alaninyl-d4TMP, read-out: Activity"}, "[2]": {"target": "T2, ATP-binding cassette sub-family C member 4 (Homo sapiens, UniProt O15439)", "T2 sequence (O15439 whole entry)": "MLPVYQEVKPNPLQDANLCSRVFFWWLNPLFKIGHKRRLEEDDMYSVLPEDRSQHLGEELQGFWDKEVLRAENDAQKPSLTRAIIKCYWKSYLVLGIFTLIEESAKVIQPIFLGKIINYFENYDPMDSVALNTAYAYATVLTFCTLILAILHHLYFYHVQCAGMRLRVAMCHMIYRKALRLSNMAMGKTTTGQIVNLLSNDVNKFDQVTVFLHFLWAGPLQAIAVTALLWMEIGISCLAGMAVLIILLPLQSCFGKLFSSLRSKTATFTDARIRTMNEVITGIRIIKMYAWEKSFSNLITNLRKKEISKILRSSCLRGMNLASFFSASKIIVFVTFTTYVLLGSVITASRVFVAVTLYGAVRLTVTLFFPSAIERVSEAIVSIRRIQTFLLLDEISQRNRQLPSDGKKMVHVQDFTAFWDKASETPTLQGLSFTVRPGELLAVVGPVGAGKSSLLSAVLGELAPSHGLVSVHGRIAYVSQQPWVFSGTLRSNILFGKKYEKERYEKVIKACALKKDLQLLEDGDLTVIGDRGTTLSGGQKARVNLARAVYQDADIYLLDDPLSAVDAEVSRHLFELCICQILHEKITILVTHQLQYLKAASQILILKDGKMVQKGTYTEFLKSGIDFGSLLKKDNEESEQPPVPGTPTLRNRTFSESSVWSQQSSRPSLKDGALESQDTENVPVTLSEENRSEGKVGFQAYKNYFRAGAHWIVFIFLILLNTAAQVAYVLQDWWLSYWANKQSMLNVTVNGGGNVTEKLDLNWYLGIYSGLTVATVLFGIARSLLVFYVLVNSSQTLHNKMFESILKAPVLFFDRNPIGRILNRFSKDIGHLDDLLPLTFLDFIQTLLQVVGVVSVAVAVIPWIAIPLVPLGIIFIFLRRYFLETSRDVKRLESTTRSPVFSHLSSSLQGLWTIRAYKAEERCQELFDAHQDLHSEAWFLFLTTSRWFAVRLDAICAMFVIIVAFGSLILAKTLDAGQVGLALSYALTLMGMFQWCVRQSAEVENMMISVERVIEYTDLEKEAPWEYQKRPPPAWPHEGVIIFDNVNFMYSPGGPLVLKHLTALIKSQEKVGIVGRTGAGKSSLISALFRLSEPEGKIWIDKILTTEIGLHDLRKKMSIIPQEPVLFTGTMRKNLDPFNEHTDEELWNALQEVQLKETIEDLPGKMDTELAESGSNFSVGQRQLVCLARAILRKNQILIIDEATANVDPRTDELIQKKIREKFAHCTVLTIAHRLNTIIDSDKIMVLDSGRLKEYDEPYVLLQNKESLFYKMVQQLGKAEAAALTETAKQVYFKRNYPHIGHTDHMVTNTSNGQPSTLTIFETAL", "experiment": "TP_TRANSPORTER: inhibition of E217betaG in the presence of Celecoxib at a concentration of 50uM in membrane vesicles from MRP4-expressing Sf9 cells", "type": "functional, cell membranes, Membrane vesicle", "settings": "sf9, 50 µM"}, "[3]": {"target": "T3, MRP4 (ATP-binding cassette sub-family C member 4) (Homo sapiens, UniProt O15439)", "T3 sequence (O15439 whole entry)": "T2 sequence (O15439 whole entry)", "experiment": "TP_TRANSPORTER: inhibition of E217betaG in the presence of Diclofenac at a concentration of 100uM in membrane vesicles from MRP4-expressing Sf9 cells", "type": "functional, cell membranes, Membrane vesicle", "settings": "probe E217betaG, read-out: Activity"}, "[4]": {"target": "Multidrug resistance-associated protein 1 (Homo sapiens, UniProt P33527)", "sequence (P33527 whole entry)": "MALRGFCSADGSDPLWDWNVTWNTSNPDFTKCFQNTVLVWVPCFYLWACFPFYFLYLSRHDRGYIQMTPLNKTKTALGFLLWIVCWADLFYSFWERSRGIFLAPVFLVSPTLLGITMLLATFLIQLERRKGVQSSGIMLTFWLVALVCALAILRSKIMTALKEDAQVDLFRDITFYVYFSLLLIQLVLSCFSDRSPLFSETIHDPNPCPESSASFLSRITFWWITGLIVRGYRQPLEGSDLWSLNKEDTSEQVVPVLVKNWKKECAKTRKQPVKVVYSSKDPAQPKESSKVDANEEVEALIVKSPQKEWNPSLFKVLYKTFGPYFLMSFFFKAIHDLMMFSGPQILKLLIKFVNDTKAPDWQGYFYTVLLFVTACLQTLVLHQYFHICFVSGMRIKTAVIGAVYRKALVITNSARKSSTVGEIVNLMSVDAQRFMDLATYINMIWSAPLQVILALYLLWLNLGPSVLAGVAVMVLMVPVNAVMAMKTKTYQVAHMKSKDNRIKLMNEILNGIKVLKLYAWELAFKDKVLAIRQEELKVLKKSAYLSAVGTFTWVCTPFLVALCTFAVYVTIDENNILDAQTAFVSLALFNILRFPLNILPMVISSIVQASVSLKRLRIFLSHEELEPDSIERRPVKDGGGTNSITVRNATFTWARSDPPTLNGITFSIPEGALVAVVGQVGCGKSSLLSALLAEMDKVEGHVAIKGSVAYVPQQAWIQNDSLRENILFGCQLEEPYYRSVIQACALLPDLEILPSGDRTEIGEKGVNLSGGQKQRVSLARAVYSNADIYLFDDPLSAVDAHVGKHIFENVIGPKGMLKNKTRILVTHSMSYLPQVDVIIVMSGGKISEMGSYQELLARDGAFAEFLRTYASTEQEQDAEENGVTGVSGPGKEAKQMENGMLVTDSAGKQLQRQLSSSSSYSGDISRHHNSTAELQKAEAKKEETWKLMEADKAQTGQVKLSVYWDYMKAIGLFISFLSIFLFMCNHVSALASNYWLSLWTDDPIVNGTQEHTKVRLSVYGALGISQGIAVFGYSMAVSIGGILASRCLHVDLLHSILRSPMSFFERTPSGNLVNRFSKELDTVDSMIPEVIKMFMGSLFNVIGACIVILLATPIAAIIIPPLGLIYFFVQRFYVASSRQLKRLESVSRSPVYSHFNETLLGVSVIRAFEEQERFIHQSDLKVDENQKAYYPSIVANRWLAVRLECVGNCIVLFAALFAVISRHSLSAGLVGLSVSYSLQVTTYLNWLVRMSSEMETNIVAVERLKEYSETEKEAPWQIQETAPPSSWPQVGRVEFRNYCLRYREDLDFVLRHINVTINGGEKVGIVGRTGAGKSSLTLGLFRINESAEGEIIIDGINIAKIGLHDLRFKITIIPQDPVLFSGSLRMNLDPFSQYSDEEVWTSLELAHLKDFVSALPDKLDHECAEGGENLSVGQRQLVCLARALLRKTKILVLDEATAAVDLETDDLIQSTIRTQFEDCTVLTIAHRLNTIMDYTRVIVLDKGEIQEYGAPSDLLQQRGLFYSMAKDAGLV", "experiment": "TP_TRANSPORTER: inhibition of E217betaG in the presence of Diclofenac at a concentration of 100uM in membrane vesicles from MRP1-expressing Sf9 cells", "type": "functional, cell membranes, Membrane vesicle", "settings": "sf9, 100 µM"}, "[5]": {"target": "T1, MRP5 (ATP-binding cassette sub-family C member 5)", "experiment": "TP_TRANSPORTER: inhibition of alaninyl-d4TMP by Prostaglandin E2 at a concentration of 20uM in membrane vesicle from MRP5-expressing HEK293 cells", "type": "functional, cell membranes", "settings": "membrane vesicles from MRP5-expressing HEK293 cells, probe alaninyl-d4TMP, read-out: Activity"}, "[6]": {"target": "T2, ATP-binding cassette sub-family C member 4", "experiment": "TP_TRANSPORTER: inhibition of alaninyl-d4TMP in the presence of Prostaglandin F2alpha at a concentration of 20uM in membrane vesicles from MRP4-expressing Sf9 cells", "type": "functional, cell membranes, Membrane vesicle", "settings": "sf9, 20 µM"}, "[7]": {"target": "T1, MRP5 (ATP-binding cassette sub-family C member 5)", "experiment": "TP_TRANSPORTER: inhibition of alaninyl-d4TMP by Prostaglandin F2alpha at a concentration of 20uM in membrane vesicle from MRP5-expressing HEK293 cells", "type": "functional, cell membranes", "settings": "membrane vesicles from MRP5-expressing HEK293 cells, probe alaninyl-d4TMP, read-out: Activity"}, "[8]": {"target": "T2, ATP-binding cassette sub-family C member 4", "experiment": "TP_TRANSPORTER: inhibition of E217betaG in the presence of Flurbiprofen at a concentration of 50uM in membrane vesicles from MRP4-expressing Sf9 cells", "type": "functional, cell membranes, Membrane vesicle", "settings": "sf9, 50 µM"}, "[9]": {"target": "T2, ATP-binding cassette sub-family C member 4", "experiment": "TP_TRANSPORTER: inhibition of E217betaG in the presence of Ibuprofen at a concentration of 200uM in membrane vesicles from MRP4-expressing Sf9 cells", "type": "functional, cell membranes, Membrane vesicle", "settings": "sf9, 200 µM"}, "[10]": {"target": "MRP1 (Multidrug resistance-associated protein 1) (Homo sapiens, UniProt P33527)", "sequence (P33527 whole entry)": "as above", "experiment": "TP_TRANSPORTER: inhibition of E217betaG in the presence of Ibuprofen at a concentration of 200uM in membrane vesicles from MRP1-expressing Sf9 cells", "type": "functional, cell membranes, Membrane vesicle", "settings": "probe E217betaG, read-out: Activity"}},
  "data": [
    {"smiles": "CCCCC[C@H](O)/C=C/[C@H]1[C@H](O)CC(=O)[C@@H]1CCCCCCC(=O)O", "note": "[ALPROSTADIL]", "values": [
      {"measurement": "activity at 20 µM", "setting": "[1]", "value": 69, "unit": "%"}
    ]},
    {"smiles": "Cc1ccc(-c2cc(C(F)(F)F)nn2-c2ccc(S(N)(=O)=O)cc2)cc1", "note": "[CELECOXIB]", "values": [
      {"measurement": "Activity", "setting": "[2]", "value": 78, "unit": "%"}
    ]},
    {"smiles": "O=C(O)Cc1ccccc1Nc1c(Cl)cccc1Cl", "note": "[DICLOFENAC]", "values": [
      {"measurement": "activity at 100 µM", "setting": "[3]", "value": 61, "unit": "%"},
      {"measurement": "Activity", "setting": "[4]", "value": 82, "unit": "%"}
    ]},
    {"smiles": "CCCCC[C@H](O)/C=C/[C@H]1[C@H](O)CC(=O)[C@@H]1C/C=C\\CCCC(=O)O", "note": "[DINOPROSTONE]", "values": [
      {"measurement": "activity at 20 µM", "setting": "[5]", "value": 74, "unit": "%"}
    ]},
    {"smiles": "CCCCC[C@H](O)/C=C/[C@@H]1[C@@H](C/C=C\\CCCC(=O)O)[C@@H](O)C[C@H]1O", "note": "[DINOPROST]", "values": [
      {"measurement": "Activity", "setting": "[6]", "value": 15, "unit": "%"},
      {"measurement": "activity at 20 µM", "setting": "[7]", "value": 63, "unit": "%"}
    ]},
    {"smiles": "CC(C(=O)O)c1ccc(-c2ccccc2)c(F)c1", "note": "(stereo not given) [FLURBIPROFEN]", "values": [
      {"measurement": "Activity", "setting": "[8]", "value": 23, "unit": "%"}
    ]},
    {"smiles": "CC(C)Cc1ccc(C(C)C(=O)O)cc1", "note": "(stereo not given) [IBUPROFEN]", "values": [
      {"measurement": "Activity", "setting": "[9]", "value": 31, "unit": "%"},
      {"measurement": "activity at 200 µM", "setting": "[10]", "value": 79, "unit": "%"}
    ]}
  ]
}
